Experimental data reported in US7183279B2, “Histogranin-like peptides and non-peptides, processes for their preparation and uses thereof” (University of Ottawa, priority 2006, dated 2007).
Entries after “also recorded” stand apart in the source; their conditions may differ. Read-outs that look alike come from different tables or passages of the source. Non-standard residues stand in square brackets, D forms with d. Residues, ends and D or L forms follow the SMILES beside them. Phe(4-Cl) = N[C@@H](Cc1ccc(Cl)cc1)C(=O)O

Assays:
[1] = system: Swiss Webster mice; assay: Mouse tail flick assay (radiant heat); type: in vivo; conditions: i.c.v.; for AD50 (nmol/mouse): latency 5 min after injection
Description: Mouse tail flick assay. […] Briefly, the latency to withdraw the tail from a focused light stimulus was determined using a photocell. […] Baseline latencies were determined before experimental treatment as the mean of two trials and a maximal latency of 12 s was used to minimize tissue damage. Post-treatment latencies were determined 5 min after i.c.v. injection. The antinociceptive effect was expressed as the percentage of the maximum possible effect, as calculated by the formula: % MPE=[(post-injection latency-baseline latency)/(cutoff latency-baseline latency)]×100. […] Group % MPE means were compared using one-way ANOVAs and P≦0.05 was considered significant.

[2] = system: Swiss Webster mice; assay: Mouse rotarod assay; conditions: 10 nmol i.c.v.
From the text: Mouse rotarod assay. The rotarod treadmill (model 7600, UGO Basile, Italy) for mice was used to assess the motor side-effects of antinociceptive agents. […] The apparatus is constituted of a rod with a diameter of 2.5 cm suspended horizontally 50 cm above a plane working area. The rod is turning at a speed of 8 revolutions per min. Circular perpex separators are placed at regular intervals along the rod so that five mice can be tested at the same time. Before administering any compound, all animals are placed on the turning rod for one min in two consecutive rounds. Mice that fall from the rod during these conditioning experiments are excluded from the assay. For the assay, the test compounds were administered i.c.v. and the animals were placed on the turning rod for two min. The % of mice in groups of 10 mice which fell during this latter two min-experiment was recorded as the % of mice showing motor effects. Rotarod assays were conducted at different times (up to 60 min) after the administration of peptides. Statistical calculation were made using Student t-test. Results: Mouse writhing pain assay. […] The lengths of action of the various compounds were evaluated by measuring the time (T1/2) it took after injection of a specific dose of a compound to produce half-maximal effect. […] Analgesic effects of peripheral administrations. […] Mouse tail-flick assay.

[3] = system: Swiss Webster mice; assay: Mouse writhing test (acetic acid-induced); type: in vivo; conditions: for AD50 (nmol/mouse): acetic acid i.p. 5 min after injection; for analgesia: i.v. administration, 1 μmol/kg; for analgesic activity after peripheral administration: oral and i.p. administrations
[4] = system: Swiss Webster mice; assay: Induction of tolerance to morphine, tail-flick latency; type: in vivo, mouse; conditions: for tail-flick latency on repeated dosing: 8 days
Description: Tail-flick latency to thermal pain was recorded 30 min after the i.p. administration(s) in the morning session of days 1, 3, 6 and 8 as indicated in the figure.

[5] = system: Swiss Webster mice; conditions: literature values; cited from earlier work
[6] = i.t. administration of NMDA, literature; cited from earlier work
[7] = system: rat; conditions: literature; cited from earlier work
[8] = sciatic nerve injury, literature; cited from earlier work

| Compound | Potency ratio relative to [Ser1]HN [1] | AD50 (nmol/mouse) [1] | motor effect [2] | Potency ratio relative to Histogranin (HN) ([3]; i.c.v.) | AD50 (nmol/mouse) ([3]; i.c.v.) | also measured |
| --- | --- | --- | --- | --- | --- | --- |
| N=C(N)NCCC[C@H](Nc1ccc(C(F)(F)F)cc1NC(=O)Cc1ccc(O)cc1)C(N)=O [II-2, N-5-guanidinopentanamide-(2S)-yl-2-N-(p-hydroxyphenylacetyl)-4-trifluorometyl-phenylenediamine] | 1.16 | 98.6 nmol/mouse | did not cause any motor effect | 1.40 | 16.1 nmol/mouse | – |
| CN1CC[C@]23c4c5ccc(O)c4O[C@H]2[C@@H](O)C=C[C@H]3[C@H]1C5 [Morphine, reference compound] | – | 1.57 nmol/mouse | – | – | 0.72 nmol/mouse | tail-flick latency on repeated dosing ([4]; 10 mg/kg i.p. twice a day): tolerance being developed at days 6 and 8 |
| CC(C)CC(NC(=O)C(NC(=O)C(CCCNC(=N)N)NC(=O)CNC(=O)C(CCC(N)=O)NC(=O)CN)C(C)O)C(=O)NC(Cc1ccc(O)cc1)C(=O)NCC(=O)NC(Cc1ccccc1)C(=O)O (stereo not shown) [HN-(7–15), reference compound] (H-GQGRTLYGF-OH; configuration not given here) | – | – | – | 2.71 | 8.5 nmol/mouse | AD50 [5]: 8.5 nmol/mouse |
| Cyclo(-Gly-(p-amino)Phe-Tyr-D-Arg-) [Compound I-4] | – | – | – | 9.14 | 2.52 nmol/mouse | analgesia [3]: 71% |
| Cyclo(-Gly-(p-chloro)Phe-Tyr-(p-guanidino)Phe-) [Compound I-3] | – | – | – | 21.3 | 1.08 nmol/mouse | – |
| [Ser^1] HN: a chemically stable analog of HN | 1 | 114 nmol/mouse | – | – | – | hyperalgesia and allodynia [6]: attenuated hyperalgesia and allodynia; tonic pain [7]: blocked tonic pain; hyperalgesia and allodynia [8]: attenuated hyperalgesia and allodynia |
| N=C(N)NCCC[C@@H](Nc1ccc(C(=O)O)cc1NC(=O)Cc1ccc(O)cc1)C(N)=O [II-3, N-5-guanidinopentanamide-(2R)-yl-2-N-(p-hydroxyphenylacetyl)-4-carboxy-phenylenediamine] | 3.59 | 31.7 nmol/mouse | did not cause any motor effect | 7.27 | 3.16 nmol/mouse | – |
| N=C(N)NCCC[C@H]1NC(=O)[C@H](Cc2ccc(O)cc2)NC(=O)[C@H](Cc2ccc(Cl)cc2)NC(=O)CNC1=O [Compound I-1, Cyclo(-Gly-(p-chloro)Phe-Tyr-D-Arg-)] (cyclo(G[Phe(4-Cl)]Y[dR])) | 12.5 | 9.1 nmol/mouse | did not cause any motor effect | 135 | 0.17 nmol/mouse | analgesia in tail-flick assay in words [1]: more potent than HN; fold more potent than morphine ([3]; i.c.v.): 3.9 fold; analgesia [3]: 84%; analgesic activity after peripheral administration [3]: dose-dependent analgesic activity; also recorded: Significant analgesic activity |
| N=C(N)NCCC[C@@H](Nc1ccc(C(=O)c2ccc(Cl)cc2)cc1NC(=O)Cc1ccc(O)cc1)C(N)=O [II-4, N-5-guanidinopentanamide-(2R)-yl-2-N-(p-hydroxyphenylacetyl)-4-(p-chlorobenzoyl)-phenylenediamine] | 8.70 | 13.1 nmol/mouse | did not cause any motor effect | 8.87 | 2.61 nmol/mouse | – |
| N=C(N)NCCC[C@H](C(N)=O)n1c(-c2ccc(O)cc2)nc2cc(C(=O)O)ccc21 [III-1] | 11.9 | 9.6 nmol/mouse | did not cause any motor effect | 5.56 | 4.14 nmol/mouse | analgesia in tail-flick assay in words [1]: more potent than HN; analgesic activity after peripheral administration [3]: dose-dependent analgesic activity; also recorded: Significant analgesic activity |
| N=C(N)NCCC[C@H](Nc1ccccc1NC(=O)Cc1ccc(O)cc1)C(N)=O [II-1, N-5-guanidinopentanamide-(2S)-yl-2-N-(p-hydroxyphenylacetyl) phenylenediamine] | 8.0 | 14.2 nmol/mouse | did not cause any motor effect | 3.54 | 6.5 nmol/mouse | analgesia in tail-flick assay in words [1]: more potent than HN; potentiation of morphine analgesia ([3]; coadministration i.c.v. of subanalgesic dose (3 nmol) with morphine): left shift in the dose-response curve of morphine; also recorded: potentiates the analgesic effects of morphine; prolongation of morphine analgesia ([3]; coadministration with morphine 0.5 nmol i.c.v.): slightly prolongated; analgesia [3]: 35%; analgesic activity after peripheral administration [3]: dose-dependent analgesic activity; also recorded: Significant analgesic activity; effect on analgesic effect of morphine ([4]; 4 mg/kg i.p. 30 min prior to morphine 10 mg/kg): potentiated the analgesic effect of morphine; effect on morphine tolerance ([4]; 4 mg/kg i.p. 30 min prior to morphine 10 mg/kg, days 6 and 8): inhibits morphine tolerance; tail-flick latency on repeated dosing ([4]; 4 mg/kg i.p. twice a day, alone): small increase in the tail-flick latency that was significant only on days 1 and 8 |
| C[C@@H](O)[C@@H]1NC(=O)[C@@H](CCCNC(=N)N)NC(=O)[C@H](Cc2ccc(O)cc2)NC(=O)[C@H](Cc2ccc(Cl)cc2)NC1=O [Compound I-5, Cyclo(-Thr-(p-chloro)Phe-Tyr-D-Arg-)] (cyclo([Phe(4-Cl)]Y[dR]T)) | 2.96 | 38.5 nmol/mouse | did not cause any motor effect | 2.14 | 10.7 nmol/mouse | – |
| Cyclo(-Gly-(p-chloro)Phe-Tyr-(p-amino)Phe-) [Compound I-2] | – | – | – | 3.39 | 6.79 nmol/mouse | – |
